Assay results published in US11155668B2, “Contact-killing, QAC functionalized thermoplastic polyurethane for catheter applications” (THE UNIVERSITY OF AKRON, priority 2017, dated 2021).

Assays:
E. faecalis = assay: Contact-killing assay (adapted from ISO 22196) on allyl-TPU blade-coated samples modified with Qx-SH; format: cell-based, Enterococcus faecalis (ATCC 29212); details: n = 1
Protocol: (§1) To functionalize the allyl-TPU blade-coated samples with Qx-SH reagents, thiol-ene reactions were performed using the same procedure described for rhodamine-SH. Briefly, blade-coated films of allyl-TPU (250 μm thick, 2.0 cm diameter, ca. 110 mg, 20 μmol allyl) were submerged in 2 mL of an Ar purged (30 min) aqueous solution containing Qx-SH (10.0 mM) and LAP (5.0 mM), and allowed to pre-soak for 30 min under Ar. UV-treated samples were irradiated for 30 min (λ=365 nm, I=1.2 mW·cm^−2) while phys. ads. samples were kept in the absence of UV light for 30 min to control for any antimicrobial activity that is contributed by non-covalently attached QAC. Following treatment, the dye/photoinitiator solutions were drawn up and discarded, and the samples were rinsed with 5 mL of DI water (3×) then submerged in 5 mL of DI water. The samples were further rinsed with 10% EtOH (3×) and soaked in 10% EtOH for 15 min (3×), rinsing with 10% EtOH in between each soak.
(§2) For antimicrobial testing, blade-coated samples and catheter tubing of allyl-TPU were sterilized by EtO sterilization using an Anprolene benchtop sterilizer (Anderson Products, Inc., Haw River, N.C.) following the manufacturer's protocol to deliver approximately 0.5 cc·L^−1 of EtO gas over a 12 h sterilization cycle at 35% humidity and room temperature, followed by a 48 h purge under vacuum. The bacterial strains used in this study included Staphylococcus epidermidis (ATCC 12228), Staphylococcus aureus (25923), Escherichia coli (ATCC 25922), Pseudomonas aeruginosa (ATCC 27853), Enterococcus faecalis (ATCC 29212), and methicillin-resistant Staphylococcus aureus (MRSA) (ATCC BAA-41).
(§3) The contact-killing assay was performed on physically adsorbed (phys. ads.), and UV-treated blade-coated samples modified with a series of Qx-SH reagents using a method adapted from ISO 22196. See, International Organization for Standardization. Measurement of antibacterial activity on plastics and other non porous surfaces (ISO 22196:2011), the disclosure of which is incorporated herein by reference in its entirety. Briefly, the samples were inoculated with same day cultures of select bacteria (e.g. E. coli, S. epidermidis) in dilute nutrient media (0.2% tryptic soy broth (TSB) in 1× phosphate buffered saline (PBS)) at approximately 150 colony-forming units (CFU)·mm^−2. Generally, 35 uL of 8.5×10^5 CFU/mL cultures were dispersed across the surface of the sample using sterile polypropylene cover films (area=198 mm^2). Inoculated samples were incubated in a humidified room air incubator (36° C., ca. 80% rel. humidity) for 20 h. Following incubation, surviving cells were recovered from the samples using vigorous agitation (i.e. vortexing for 20 s in PBS). Surviving cells were enumerated via 10-fold series dilution and plating 100 μL onto tryptic soy agar (TSA), incubating overnight and then plate counting CFU. The mean CFU recovered per sample (CFU/sample) were calculated by accounting for dilutions. Internal controls samples of polypropylene and chlorhexidine treated with polypropylene were included in the assay.

MRSA = assay: as above; format: cell-based; details: n = 1
Protocol: as §1, §2, §3

P. aeruginosa = assay: as above; format: cell-based, Pseudomonas aeruginosa (ATCC 27853); details: for Mean CFU/Sample Recovered, P. aeruginosa: n = 1
Protocol: as §1, §2, §3

S. epidermidis = assay: as above; format: cell-based, Staphylococcus epidermidis (ATCC 12228); details: n = 2
Protocol: as §1, §2, §3

E. coli [1] = assay: as above; format: cell-based, Escherichia coli (ATCC 25922); details: for Mean CFU/Sample Recovered, E. coli: n = 2
Protocol: as §1, §2
as §3, with “Inoculated samples were incubated in a humidified room air incubator (36° C., ca. 80% rel. humidity) for 20 h.” left out

E. coli [2] = assay: Antimicrobial testing using ISO22196 protocol on compression molded samples; format: cell-based; details: surface functionalized (covalently attached QAC) sample; FIG. 7B
[3] = positive control (chlorhexidine treated polypropylene)
[4] = UV-treated samples, negative control polypropylene 1.70 × 10^5
[5] = phys. ads. samples, negative control polypropylene 1.70 × 10^5
[6] = UV-treated samples, negative control polypropylene 1.51 × 10^5
[7] = phys. ads. samples, negative control polypropylene 1.51 × 10^5
[8] = UV-treated samples, negative control polypropylene 7.94 × 10^6
[9] = phys. ads. samples, negative control polypropylene 7.94 × 10^6
[10] = UV-treated samples, negative control polypropylene 0.93 (±0.03) × 10^5
[11] = phys. ads. samples, negative control polypropylene 0.93 (±0.03) × 10^5
[12] = UV-treated samples, 24 h contact-killing assay
[13] = UV-treated samples, negative control polypropylene 2.04 (±0.06) × 10^6
[14] = phys. ads. samples, negative control polypropylene 2.04 (±0.06) × 10^6

| SMILES | Mean CFU/Sample Recovered, E. faecalis (E. faecalis; [3]) [CFU/Sample] | Mean CFU/Sample Recovered, MRSA (MRSA; [3]) [CFU/Sample] | Mean CFU/Sample Recovered, P. aeruginosa (P. aeruginosa; [3]) [CFU/Sample] | Mean CFU/Sample Recovered, S.epidermidis (S. epidermidis; [3]) [CFU/Sample] | Mean CFU/Sample Recovered, E. coli (E. coli [1]; [3]) [CFU/Sample] | log reduction, activity against E. coli (E. coli [2]) [log] | Mean CFU/Sample Recovered, E. faecalis (E. faecalis; [4]) [CFU/Sample] | Mean CFU/Sample Recovered, E. faecalis (E. faecalis; [5]) [CFU/Sample] | Mean CFU/Sample Recovered, MRSA (MRSA; [6]) | Mean CFU/Sample Recovered, MRSA (MRSA; [7]) [CFU/Sample] | reduction of P. aeruginosa (P. aeruginosa; UV-treated samples) | Mean CFU/Sample Recovered, P. aeruginosa (P. aeruginosa; [8]) | Mean CFU/Sample Recovered, P. aeruginosa (P. aeruginosa; [9]) | Mean CFU/Sample Recovered, S.epidermidis (S. epidermidis; [10]) [CFU/Sample] | Mean CFU/Sample Recovered, S.epidermidis (S. epidermidis; [11]) [CFU/Sample] | log reduction in E. coli compared to the negative control (E. coli [1]; [12]) [log] | reduction in E. coli compared to the negative control (E. coli [1]; [12]) [%] | Mean CFU/Sample Recovered, E. coli (E. coli [1]; [13]) | Mean CFU/Sample Recovered, E. coli (E. coli [1]; [14]) |
| --- | --- | --- | --- | --- | --- | --- | --- | --- | --- | --- | --- | --- | --- | --- | --- | --- | --- | --- | --- |
| [H]/N=C(\N/C(=N/[H])NCCCCCCNC(=N)NC(=N)Nc1ccc(Cl)cc1)Nc1ccc(Cl)cc1 [Chlorhexidine, reference compound] | 0.00 | 0.00 | 0.00 | 0.00 ± 0.00 | 0.00 ± 0.00 |  |  |  |  |  |  |  |  |  |  |  |  |  |  |
| CCCCCCCCCCCCCC[N+](C)(C)CCCCCCCCOC(=O)CCSSCCC(=O)OCCCCCCCC[N+](C)(C)CCCCCCCCCCCCCC.[Cl-].[Cl-] [8-Q14-S-S] |  |  |  |  |  | 6 |  |  |  |  |  |  |  |  |  |  |  |  |  |
| CCCCCCCCCCCC[N+](C)(C)CCCCCCCCOC(=O)CCS.[Cl-] [Q12-SH] |  |  |  |  |  |  | 0.00 | 0.00 | 0.00 CFU/Sample | 0.00 | complete reduction | 0.00 CFU/Sample | 7.24 × 10^5 CFU/Sample | 0.00 ± 0.00 | 0.00 ± 0.00 | 6 | 99.9999 | 0.00 ± 0.00 CFU/Sample | 1.17 (±0.41) × 10^3 CFU/Sample |
| CCCCCCCCCCCCCC[N+](C)(C)CCCCCCCCOC(=O)CCS.[Cl-] [Q14-SH] |  |  |  |  |  |  | 0.00 | 0.00 | 1.00 × 10^2 CFU/Sample | 0.00 |  | 5.25 × 10^6 CFU/Sample | 4.79 × 10^6 CFU/Sample | 0.00 ± 0.00 | 0.00 ± 0.00 |  |  | 6.61 (±0.01) × 10^5 CFU/Sample | 6.03 (±0.03) × 10^5 CFU/Sample |
